Source: US20020051978A1, “Methods and compositions for the identification, assessment, prevention and therapy of human cancers” (priority 2000, published 2002)
Read-outs that look alike come from different tables or passages of the source.

Tests used:
[1] = system: 60 cancer cell lines (NCI 60 cancer cell line series); conditions: cited from earlier work
[2] = system: 60 cancer cell lines (NCI 60 cancer cell line series); assay: NCI-DTP in vitro cancer screen, sulforhodamine B (SRB) growth inhibition, 48 hour exposure; assay type: cell-based, human; set-up: key to sensitivity class Ovarian OVCAR-8 CL6005 / sensitivity class Ovarian SK-OV-3 CL6011 / sensitivity class Prostate DU-145 CL11003 / sensitivity class NSCLC NCI-H522 CL1003 / sensitivity class Ovarian IGROV1 CL6010 / sensitivity class Ovarian OVCAR-4 CL6002 / sensitivity class Prostate PC-3(I) CL11001 / sensitivity class Renal A498 CL9013 / sensitivity class Renal SN12C CL9008: sensitivity class: 1 = Low, 2 = Medium, 3 = High
How it was run: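 Sixty NCI-DTP cancer lines plated at line-specific densities, dosed on day 1 in duplicate with 5 concentrations at ten-fold intervals. After 48 h exposure, cell mass read by SRB staining; GI50 (50% growth inhibition) taken from dose-response curves and expressed as -log GI50.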

NC(=O)NO [Hydroxyurea]
1: classification of cell line as Low(1), Medium(2) or High(3) sensitivity to compound ([2]; Breast BT-549 (CL5013)) | classification of cell line as Low(1), Medium(2) or High(3) sensitivity to compound ([2]; Breast MDA-MB-231 CL5005) | classification of cell line as Low(1), Medium(2) or High(3) sensitivity to compound ([2]; Breast MDA-MB-435 (CL5011)) | classification of cell line as Low(1), Medium(2) or High(3) sensitivity to compound ([2]; Breast MDA-N CL5012) | classification of cell line as Low(1), Medium(2) or High(3) sensitivity to compound ([2]; Breast T-47D (CL5014)) | classification of cell line as Low(1), Medium(2) or High(3) sensitivity to compound ([2]; CNS SNB-19 (CL12002)) | classification of cell line as Low(1), Medium(2) or High(3) sensitivity to compound ([2]; Colon COLO-250 CL4010) | classification of cell line as Low(1), Medium(2) or High(3) sensitivity to compound ([2]; Melanoma SK-MEL-2 (CL10005)) | classification of cell line as Low(1), Medium(2) or High(3) sensitivity to compound ([2]; Melanoma SK-MEL-28 (CL10008)) | classification of cell line as Low(1), Medium(2) or High(3) sensitivity to compound ([2]; Melanoma UACC-257 (CL10021)) | classification of cell line as Low(1), Medium(2) or High(3) sensitivity to compound ([2]; NSCLC EKVX (CL1008)) | sensitivity class NSCLC NCI-H332M CL1017 ([2]; cell line NSCLC NCI-H332M, CL1017) | sensitivity class Ovarian OVCAR-4 CL6002 ([2]; cell line Ovarian OVCAR-4, CL6002) | sensitivity class Ovarian SK-OV-3 CL6011 ([2]; cell line Ovarian SK-OV-3, CL6011) | sensitivity class Renal TK10 CL9024 ([2]; cell line Renal TK10, CL9024)
3.7: -Log (GI50) ([1]; Leukemia SR CL7019)
3.2: -Log (GI50) ([1]; Melanoma LOX IMVI CL10001) | -Log (GI50) ([1]; Melanoma M14 (CL10014)) | -Log (GI50) ([1]; Melanoma SK-MEL-5 (CL10007)) | -Log (GI50) ([1]; Ovarian OVCAR-5 CL6003) | -Log (GI50) ([1]; Renal A498 CL9013) | -Log (GI50) ([1]; Renal RXF-393 CL9016)
3.6: -Log (GI50) ([1]; Leukemia RPMI-8226(I) (CL7010)) | -Log (GI50) ([1]; Melanoma UACC-62 (CL10020)) | -Log (GI50) ([1]; Renal CAKI-1 CL9015)
3.1: -Log (GI50) ([1]; Breast HS-578T CL5006) | -Log (GI50) ([1]; CNS SNB-75(I) CL12005) | -Log (GI50) ([1]; Colon HCC-2998 (CL4002)) | -Log (GI50) ([1]; Colon HCT-15 CL4015) | -Log (GI50) ([1]; Colon KM12 (CL4017)) | -Log (GI50) ([1]; NCSLC NCI-H522 CL1003) | -Log (GI50) ([1]; NSCLC HOP-92 (CL1029)) | -Log (GI50) ([1]; NSCLC NCI-H23(I) CL1001) | -Log (GI50) ([1]; NSCLC NCI-H226 CL1013) | -Log (GI50) ([1]; Prostate DU-145 CL11003) | -Log (GI50) ([1]; Renal SN12C CL9008)
4.7: -Log (GI50) ([1]; Leukemia HL-60(I) (CL7008))
3.5: -Log (GI50) ([1]; Breast MCF7(I) (CL5001)) | -Log (GI50) ([1]; Breast MCF7/ADRr (CL5002)) | -Log (GI50) ([1]; CNS SF-295 CL12015) | -Log (GI50) ([1]; CNS SF-539 CL12016) | -Log (GI50) ([1]; NSCLC NCI-H460 CL1021) | -Log (GI50) ([1]; Renal 786-O CL9018)
3.8: -Log (GI50) ([1]; Leukemia MOLT-4 (CL7006))
2.7: -Log (GI50) ([1]; Breast MDA-MB-435 (CL5011)) | -Log (GI50) ([1]; Breast MDA-N CL5012) | -Log (GI50) ([1]; Melanoma SK-MEL-28 (CL10008)) | -Log (GI50) ([1]; Renal TK10 CL9024)
2: classification of cell line as Low(1), Medium(2) or High(3) sensitivity to compound ([2]; Breast HS-578T CL5006) | classification of cell line as Low(1), Medium(2) or High(3) sensitivity to compound ([2]; Breast MCF7(I) (CL5001)) | classification of cell line as Low(1), Medium(2) or High(3) sensitivity to compound ([2]; Breast MCF7/ADRr (CL5002)) | classification of cell line as Low(1), Medium(2) or High(3) sensitivity to compound ([2]; CNS SF-268 CL12014) | classification of cell line as Low(1), Medium(2) or High(3) sensitivity to compound ([2]; CNS SNB-75(I) CL12005) | classification of cell line as Low(1), Medium(2) or High(3) sensitivity to compound ([2]; CNS U251(I) CL12009) | classification of cell line as Low(1), Medium(2) or High(3) sensitivity to compound ([2]; Colon HCC-2998 (CL4002)) | classification of cell line as Low(1), Medium(2) or High(3) sensitivity to compound ([2]; Colon HCT-15 CL4015) | classification of cell line as Low(1), Medium(2) or High(3) sensitivity to compound ([2]; Colon HCT-116 (CL4003)) | classification of cell line as Low(1), Medium(2) or High(3) sensitivity to compound ([2]; Colon HT29(I) CL4001) | classification of cell line as Low(1), Medium(2) or High(3) sensitivity to compound ([2]; Colon KM12 (CL4017)) | classification of cell line as Low(1), Medium(2) or High(3) sensitivity to compound ([2]; Colon SW-620 (CL4009)) | classification of cell line as Low(1), Medium(2) or High(3) sensitivity to compound ([2]; Leukemia K562(I) CL7005) | classification of cell line as Low(1), Medium(2) or High(3) sensitivity to compound ([2]; Melanoma LOX IMVI CL10001) | classification of cell line as Low(1), Medium(2) or High(3) sensitivity to compound ([2]; Melanoma M14 (CL10014)) | classification of cell line as Low(1), Medium(2) or High(3) sensitivity to compound ([2]; Melanoma MALME-3M CL10002) | classification of cell line as Low(1), Medium(2) or High(3) sensitivity to compound ([2]; Melanoma SK-MEL-5 (CL10007)) | classification of cell line as Low(1), Medium(2) or High(3) sensitivity to compound ([2]; NSCLC A549/ATCC (CL1004)) | classification of cell line as Low(1), Medium(2) or High(3) sensitivity to compound ([2]; NSCLC HOP-62 (CL1026)) | classification of cell line as Low(1), Medium(2) or High(3) sensitivity to compound ([2]; NSCLC HOP-92 (CL1029)) | classification of cell line as Low(1), Medium(2) or High(3) sensitivity to compound ([2]; NSCLC NCI-H226 CL1013) | sensitivity class NSCLC NCI-H23(I) CL1001 ([2]; cell line NSCLC NCI-H23(I), CL1001) | sensitivity class NSCLC NCI-H522 CL1003 ([2]; cell line NSCLC NCI-H522, CL1003) | sensitivity class Ovarian IGROV1 CL6010 ([2]; cell line Ovarian IGROV1, CL6010) | sensitivity class Ovarian OVCAR-3 CL6001 ([2]; cell line Ovarian OVCAR-3, CL6001) | sensitivity class Ovarian OVCAR-5 CL6003 ([2]; cell line Ovarian OVCAR-5, CL6003) | sensitivity class Ovarian OVCAR-8 CL6005 ([2]; cell line Ovarian OVCAR-8, CL6005) | sensitivity class Prostate DU-145 CL11003 ([2]; cell line Prostate DU-145, CL11003) | sensitivity class Prostate PC-3(I) CL11001 ([2]; cell line Prostate PC-3(I), CL11001) | sensitivity class Renal 786-O CL9018 ([2]; cell line Renal 786-O, CL9018) | sensitivity class Renal A498 CL9013 ([2]; cell line Renal A498, CL9013) | sensitivity class Renal RXF-393 CL9016 ([2]; cell line Renal RXF-393, CL9016) | sensitivity class Renal SN12C CL9008 ([2]; cell line Renal SN12C, CL9008) | sensitivity class Renal UO-31 CL9004 ([2]; cell line Renal UO-31, CL9004)
4.3: -Log (GI50) ([1]; Leukemia CCRF-CEM(I) (CL7003))
4.0: -Log (GI50) ([1]; Renal ACHN CL9023)
2.6: -Log (GI50) ([1]; Breast MDA-MB-231 CL5005)
3: classification of cell line as Low(1), Medium(2) or High(3) sensitivity to compound ([2]; CNS SF-295 CL12015) | classification of cell line as Low(1), Medium(2) or High(3) sensitivity to compound ([2]; CNS SF-539 CL12016) | classification of cell line as Low(1), Medium(2) or High(3) sensitivity to compound ([2]; Leukemia CCRF-CEM(I) (CL7003)) | classification of cell line as Low(1), Medium(2) or High(3) sensitivity to compound ([2]; Leukemia HL-60(I) (CL7008)) | classification of cell line as Low(1), Medium(2) or High(3) sensitivity to compound ([2]; Leukemia MOLT-4 (CL7006)) | classification of cell line as Low(1), Medium(2) or High(3) sensitivity to compound ([2]; Leukemia RPMI-8226(I) (CL7010)) | classification of cell line as Low(1), Medium(2) or High(3) sensitivity to compound ([2]; Leukemia SR CL7019) | classification of cell line as Low(1), Medium(2) or High(3) sensitivity to compound ([2]; Melanoma UACC-62 (CL10020)) | sensitivity class NSCLC NCI-H460 CL1021 ([2]; cell line NSCLC NCI-H460, CL1021) | sensitivity class Renal ACHN CL9023 ([2]; cell line Renal ACHN, CL9023) | sensitivity class Renal CAKI-1 CL9015 ([2]; cell line Renal CAKI-1, CL9015)
2.9: -Log (GI50) ([1]; Melanoma MALME-3M CL10002)
2.8: -Log (GI50) ([1]; Breast BT-549 (CL5013)) | -Log (GI50) ([1]; Breast T-47D (CL5014)) | -Log (GI50) ([1]; CNS SNB-19 (CL12002)) | -Log (GI50) ([1]; Colon COLO-250 CL4010) | -Log (GI50) ([1]; Melanoma SK-MEL-2 (CL10005)) | -Log (GI50) ([1]; Melanoma UACC-257 (CL10021)) | -Log (GI50) ([1]; NSCLC EKVX (CL1008)) | -Log (GI50) ([1]; NSCLC NCI-H332M CL1017) | -Log (GI50) ([1]; Ovarian OVCAR-4 CL6002) | -Log (GI50) ([1]; Ovarian SK-OV-3 CL6011)
3.0: -Log (GI50) ([1]; Colon HCT-116 (CL4003)) | -Log (GI50) ([1]; Colon SW-620 (CL4009)) | -Log (GI50) ([1]; Leukemia K562(I) CL7005) | -Log (GI50) ([1]; NSCLC HOP-62 (CL1026)) | -Log (GI50) ([1]; Ovarian IGROV1 CL6010) | -Log (GI50) ([1]; Ovarian OVCAR-3 CL6001) | -Log (GI50) ([1]; Prostate PC-3(I) CL11001)
3.3: -Log (GI50) ([1]; CNS SF-268 CL12014) | -Log (GI50) ([1]; CNS U251(I) CL12009) | -Log (GI50) ([1]; Colon HT29(I) CL4001) | -Log (GI50) ([1]; NSCLC A549/ATCC (CL1004)) | -Log (GI50) ([1]; Ovarian OVCAR-8 CL6005) | -Log (GI50) ([1]; Renal UO-31 CL9004)
